According to patent US8822494B2 (Pfizer Inc., priority 2012, dated 2014):
Where two headings read alike, the source gives them in different places.

Key:
Human D1 [1] = target: T1, Human D1 (Homo sapiens (Human), UniProt P21728); assay: D1 cAMP HTRF Assay; assay type: cell-based; conditions: HEK293T/hD1#1 stable cell line, 30 min at room temperature, footnote a = geometric mean of ≧7 determinations
Excerpt: This assay was used to determine the ability of a test compound to agonize (including partially agonize) D1. A Mab anti-cAMP labeled Cryptate visualizes the tracer. […] The signal, therefore, is inversely proportional to the concentration of cAMP in the sample.
The cAMP Dynamic kit was obtained from Cisbio International (Cisbio 62AM4PEJ). Multidrop Combi (Thermo Scientific) was used for assay additions. An EnVision (PerkinElmer) reader was used to read HTRF.
A HEK293T/hD1#1 stable cell line was constructed internally (Pfizer Ann Arbor).
Media was removed and cell pellet was re-suspended in PBS/[…] generating 2e5 cells/mL. […] Working solutions of cAMP-D2 and anti-cAMP-cryptate were prepared according to Cisbio instructions. […] The assay plate was incubated for 1 hour at room temperature. The assay plate was read on an EnVision plate reader using Cisbio recommended settings.
Data analysis was done using computer software. Percent effects were calculated from the compound controls. Ratio EC50 was determined using the raw ratio data from the EnVision reader. The cAMP standard curve was used in an analysis program to determine cAMP concentrations from raw ratio data. cAMP EC50 was determined using the calculated cAMP data.

Human D1 [2] = target: T1, Human D1; assay: Human D1 Receptor Binding Assay ([3H]-SCH23390 competition); conditions: read-out: Human D1 Receptor Binding, Ki (μM); Geometric mean of 2-3 determinations; over-expressing LTK human cell lines, 0.5 nM [3H]-SCH23390, 30 min at 37° C.; footnote b = single determination, c = geometric mean of ≧4 determinations
Description: D1 binding assays were performed using over-expressing LTK human cell lines. […] These ligand and tissue concentrations were used in time course studies to determine linearity and equilibrium conditions for binding. […] The pellet was resuspended in assay buffer [50 mM Tris (pH 7.4@ RT) containing 4 mM MgSO4 and 0.5 mM EDTA]. […] Non-specific binding was determined by radioligand binding in the presence of a saturating concentration of (+)-Butaclamol (10 μM), a D1 antagonist. After a 30 minute incubation period at 37° C., assay samples were rapidly filtered through Unifilter-96 GF/B PEI-coated filter plates and rinsed with 50 mM Tris buffer (pH 7.4 at 4° C.). […] Ki values were calculated according to the Cheng-Prusoff equation: […]

[3] = read-out: Human D1 cAMP HTRF, EC50 (μM), Geometric mean of 2-6 determinations

T1 sequence (P21728 whole entry): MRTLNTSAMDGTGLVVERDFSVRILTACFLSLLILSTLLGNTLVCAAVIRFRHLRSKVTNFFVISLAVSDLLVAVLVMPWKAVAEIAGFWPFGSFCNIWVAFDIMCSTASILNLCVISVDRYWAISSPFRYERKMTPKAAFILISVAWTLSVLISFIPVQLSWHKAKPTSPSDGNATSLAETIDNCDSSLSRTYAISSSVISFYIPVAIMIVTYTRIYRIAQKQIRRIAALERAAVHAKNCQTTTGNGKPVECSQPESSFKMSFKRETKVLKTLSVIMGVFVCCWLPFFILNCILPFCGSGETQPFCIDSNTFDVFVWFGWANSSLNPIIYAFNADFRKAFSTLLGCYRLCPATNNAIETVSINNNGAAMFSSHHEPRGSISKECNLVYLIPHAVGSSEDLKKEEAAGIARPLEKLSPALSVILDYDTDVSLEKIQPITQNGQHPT

Row | EC50 (Human D1 [1]) [µM] | Ki (Human D1 [2]) [µM] | Compound | EC50 (Human D1 [1]; [3]) [µM]
1 | 0.0549 | 0.0357 | Cc1cc(Oc2nccc3[nH]ccc23)ccc1-c1cn[nH]c(=O)c1C [Example 28, 4-methyl-5-[2-methyl-4-(1H-pyrrolo[3,2-c]pyridin-4-yloxy)phenyl]pyridazin-3(2H)-one] | 
2 | 0.0553 | 0.0046 | Cc1cc(Oc2nccc3[nH]cc(C#N)c23)ccc1-c1c(C)ncnc1C [Example 44, 4-[4-(4,6-dimethylpyrimidin-5-yl)-3-methylphenoxy]-1H-pyrrolo[3,2-c]pyridine-3-carbonitrile] | 
3 | 0.464 | 0.0159 | Cc1ncc2nccn2c1-c1ccc(Oc2nccc3[nH]ccc23)cc1 [Example 19, 6-methyl-5-[4-(1H-pyrrolo[3,2-c]pyridin-4-yloxy)phenyl]imidazo[1,2-a]pyrazine] | 
4 | 0.674 | 0.0281 | Cc1cc(Oc2nccc3n[nH]cc23)ccc1-c1c(C)ncc(=O)n1C (single isomer, unassigned) [Example 40, (+)-1,5-dimethyl-6-[2-methyl-4-(1H-pyrazolo[4,3-c]pyridin-4-yloxy)phenyl]pyrazin-2(1H)-one] | 
5 | 0.156 | 0.00509 | Cc1ncnc(N2CC(F)C2)c1-c1ccc(Oc2nccc3[nH]ccc23)cc1F [Example 25, 4-{3-fluoro-4-[4-(3-fluoroazetidin-1-yl)-6-methylpyrimidin-5-yl]phenoxy}-1H-pyrrolo[3,2-c]pyridine] | 
6 | 0.146 | 0.013 | Cc1cc(Oc2nccc3[nH]ccc23)ccc1-c1c(C)ncnc1C [Example 5, 4-[4-(4,6-dimethylpyrimidin-5-yl)-3-methylphenoxy]-1H-pyrrolo[3,2-c]pyridine] | 
7 | 0.548 | 0.287 | Cc1cc(Oc2nccc3[nH]ncc23)ccc1-c1cc(=O)[nH]nc1C [Example 31, 6-methyl-5-[2-methyl-4-(1H-pyrazolo[4,3-c]pyridin-4-yloxy)phenyl]pyridazin-3(2H)-one] | 
8 | 0.568 | 0.113 | Cc1cc(Oc2nccc3[nH]ncc23)ccc1-c1c(C)ncnc1C [Example 6, 4-[4-(4,6-dimethylpyrimidin-5-yl)-3-methylphenoxy]-1H-pyrazolo[4,3-c]pyridine] | 
9 | 0.168 | 0.0418 | Cc1cc(Oc2nccc3n[nH]cc23)ccc1-c1c(C)ncc(=O)n1C (single isomer, unassigned) [Example 39, (−)-1,5-dimethyl-6-[2-methyl-4-(1H-pyrazolo[4,3-c]pyridin-4-yloxy)phenyl]pyrazin-2(1H)-one] | 
10 | 0.238 | 0.0443 | Cc1ncnc(C)c1-c1ccc(Oc2nccc3[nH]ccc23)cc1 [Example 20, 4-[4-(4,6-dimethylpyrimidin-5-yl)phenoxy]-1H-pyrrolo[3,2-c]pyridine] | 
11 | 0.141 | 0.0294 | Cc1ncc2nccn2c1-c1ccc(Oc2nccc3[nH]ccc23)cc1F [Example 18, 5-[2-fluoro-4-(1H-pyrrolo[3,2-c]pyridin-4-yloxy)phenyl]-6-methylimidazo[1,2-a]pyrazine] | 
12 |  | 0.00487 | Cc1cc(Oc2nccc3[nH]ccc23)ccc1-c1c(C)n[nH]c(=O)c1C (single isomer, unassigned; ent-1) [Example 9, 4,6-dimethyl-5-[2-methyl-4-(1H-pyrrolo[3,2-c]pyridin-4-yloxy)phenyl]pyridazin-3(2H)-one, ENT-1] | 0.00733
13 | 0.0891 | 0.0247 | Cc1cc2[nH]ncc2c(Oc2ccc(-c3c(C)n[nH]c(=O)c3C)cc2)n1 [Example 46, 4,6-dimethyl-5-{4-[(6-methyl-1H-pyrazolo[4,3-c]pyridin-4-yl)oxy]phenyl}pyridazin-3(2H)-one] | 
14 | 0.248 | 0.0523 | Cc1ncnc(C)c1-c1ccc(Oc2nccc3[nH]ncc23)cc1Cl [Example 37, 4-[3-chloro-4-(4,6-dimethylpyrimidin-5-yl)phenoxy]-1H-pyrazolo[4,3-c]pyridine] | 
15 | 0.59 | 0.0538 | Cc1ncnc(C)c1-c1ccc(Oc2nccc3[nH]ccc23)c(F)c1F [Example 23, 4-[4-(4,6-dimethylpyrimidin-5-yl)-2,3-difluorophenoxy]-1H-pyrrolo[3,2-c]pyridine] | 
16 | 2.76 | 0.268 | Cc1cc(Oc2nccc3[nH]ncc23)ccc1-n1c(C)nc2cnccc21 [Example 30, 4-[3-methyl-4-(2-methyl-1H-imidazo[4,5-c]pyridin-1-yl)phenoxy]-1H-pyrazolo[4,3-c]pyridine] | 
17 | 0.137 | 0.00798 | Cc1cc(Oc2nccc3[nH]ccc23)ccc1-c1c(C)ncc2nccn12 [Example 14, 6-methyl-5-[2-methyl-4-(1H-pyrrolo[3,2-c]pyridin-4-yloxy)phenyl]imidazo[1,2-a]pyrazine] | 
18 | 0.0192 | 0.00412 | Cc1n[nH]c(=O)c(C)c1-c1ccc(Oc2nccc3[nH]ccc23)cc1 [Example 7, 4,6-dimethyl-5-[4-(1H-pyrrolo[3,2-c]pyridin-4-yloxy)phenyl]pyridazin-3(2H)-one] | 
19 | 2.08 | 0.124 | COc1cc(Oc2nccc3[nH]ncc23)ccc1-c1c(C)ncnc1C [Example 33, 4-[4-(4,6-dimethylpyrimidin-5-yl)-3-methoxyphenoxy]-1H-pyrazolo[4,3-c]pyridine] | 
20 | 0.374 | 0.0392 | Cc1cc(Oc2nccc3[nH]ccc23)ccc1-c1c(C)ncnc1C#N [Example 17, 6-methyl-5-[2-methyl-4-(1H-pyrrolo[3,2-c]pyridin-4-yloxy)phenyl]pyrimidine-4-carbonitrile] | 
21 | 0.903 | 0.0723 | Cc1ncnc(C)c1-c1ccc(Oc2nccc3[nH]ncc23)cc1F [Example 32, 4-[4-(4,6-dimethylpyrimidin-5-yl)-3-fluorophenoxy]-1H-pyrazolo[4,3-c]pyridine] | 
22 | 0.073 | 0.00456 | Cc1cc(Oc2nccc3[nH]ccc23)ccc1-c1c(C)ncc(=O)n1C (single isomer, unassigned) [Example 26, (−)-1,5-dimethyl-6-[2-methyl-4-(1H-pyrrolo[3,2-c]pyridin-4-yloxy)phenyl]pyrazin-2(1H)-one] | 
23 | 0.0282 | 0.0175 | Cc1c(-c2ccc(Oc3nccc4[nH]ncc34)cc2)n(C)c(=O)[nH]c1=O [Example 43, 1,5-dimethyl-6-[4-(1H-pyrazolo[4,3-c]pyridin-4-yloxy)phenyl]pyrimidine-2,4(1H,3H)-dione] | 
24 |  | 0.00504 | Cc1cc(Oc2nccc3[nH]ccc23)ccc1-c1c(C)n[nH]c(=O)c1C (single isomer, unassigned; ent-2) [Example 10, 4,6-dimethyl-5-[2-methyl-4-(1H-pyrrolo[3,2-c]pyridin-4-yloxy)phenyl]pyridazin-3(2H)-one, ENT-2] | 0.00431
25 | 0.102 | 0.00984 | Cc1ncnc(C)c1-c1ccc(Oc2nccc3[nH]ccc23)cc1Cl [Example 24, 4-[3-chloro-4-(4,6-dimethylpyrimidin-5-yl)phenoxy]-1H-pyrrolo[3,2-c]pyridine] | 
26 | 0.733 | 0.118 | Cc1cc(Oc2nccc3[nH]ncc23)c(F)cc1-c1c(C)ncnc1C [Example 36, 4-[4-(4,6-dimethylpyrimidin-5-yl)-2-fluoro-5-methylphenoxy]-1H-pyrazolo[4,3-c]pyridine] | 
27 | 0.247 | 0.102 | Cc1ncnc(C)c1-c1ccc(Oc2nccc3[nH]ccc23)cc1C#N [Example 21, 2-(4,6-dimethylpyrimidin-5-yl)-5-(1H-pyrrolo[3,2-c]pyridin-4-yloxy)benzonitrile] | 
28 | 1.3 | 0.695 | COc1cnc(Oc2ccc(-c3c(C)n[nH]c(=O)c3C)cc2)c2cn[nH]c12 [Example 47, 5-{4-[(7-methoxy-1H-pyrazolo[4,3-c]pyridin-4-yl)oxy]phenyl}-4,6-dimethylpyridazin-3(2H)-one] | 
29 | 0.176 | 0.0303 | Cc1ncnc(C)c1-c1ccc(Oc2nccc3[nH]ccc23)cc1F [Example 1, 4-[4-(4,6-dimethylpyrimidin-5-yl)-3-fluorophenoxy]-1H-pyrrolo[3,2-c]pyridine] | 

Row | Compound | EC50 (Human D1 [1]) [µM] | Ki (Human D1 [2]) [µM] | EC50 (Human D1 [1]; [3]) [µM]
30 | Cc1cc(Oc2nccc3[nH]ccc23)ccc1-c1c(C)cnnc1C (single isomer, unassigned; ent-2) [Example 12, 4-[4-(3,5-dimethylpyridazin-4-yl)-3-methylphenoxy]-1H-pyrrolo[3,2-c]pyridine, ENT-2] |  | 0.0883 | 0.52
31 | Cc1cc(Oc2nccc3[nH]ccc23)ccc1-c1c(C)cnnc1C (single isomer, unassigned; ent-1) [Example 11, 4-[4-(3,5-dimethylpyridazin-4-yl)-3-methylphenoxy]-1H-pyrrolo[3,2-c]pyridine, ENT-1] |  | 0.0141 | 0.117
